# Data from patent US8501446B2 (Vertex Pharmaceuticals Incorporated, priority 2004, dated 2013).
# What was measured:
# Assay type in all cases: biochemical
# [1] = target: T1, full length Aurora-A (AA 1-403) (Homo sapiens, UniProt O14965); assay: Aurora-A inhibition assay, standard coupled enzyme system; settings: average Ki if more than one value determined
# T1 construct: full length Aurora-A (AA 1-403)
# T1 sequence (O14965 1-403): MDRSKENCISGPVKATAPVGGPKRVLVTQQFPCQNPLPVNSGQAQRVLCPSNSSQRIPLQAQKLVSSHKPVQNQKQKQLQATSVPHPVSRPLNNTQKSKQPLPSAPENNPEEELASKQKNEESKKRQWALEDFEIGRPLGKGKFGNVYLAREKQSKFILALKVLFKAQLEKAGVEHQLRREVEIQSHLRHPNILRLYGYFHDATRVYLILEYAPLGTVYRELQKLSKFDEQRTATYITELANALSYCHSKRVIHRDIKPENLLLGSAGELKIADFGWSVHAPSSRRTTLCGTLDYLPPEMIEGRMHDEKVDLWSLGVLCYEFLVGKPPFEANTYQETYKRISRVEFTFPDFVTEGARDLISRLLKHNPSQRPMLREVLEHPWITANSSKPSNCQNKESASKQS
# Method: Compounds were screened for their ability to inhibit full length Aurora-A (AA 1-403) activity using a standard coupled enzyme system (Fox et al., Protein Sci. 7, pp. 2249 (1998)). Reactions were carried out in a solution containing 100 mM HEPES (pH 7.5), 10 mM MgCl2, 25 mM NaCl, 300 μM NADH, 1 mM DTT and 3% DMSO. Final substrate concentrations in the assay were 200 μM ATP (Sigma Chemicals, St Louis, Mo.) and 800 μM peptide (LRRASLG, American Peptide, Sunnyvale, Calif.). Reactions were carried out at 30° C. and 35 nM Aurora-A. Final concentrations of the components of the coupled enzyme system were 2.5 mM phosphoenolpyruvate, 200 μM NADH, 60 μg/ml pyruvate kinase and 20 μg/ml lactate dehydrogenase.
# An assay stock buffer solution was prepared containing all of the reagents listed above with the exception of ATP and the test compound of interest. The assay stock buffer solution (60 μl) was incubated in a 96 well plate with 2 μl of the test compound of interest at final concentrations spanning 0.002 μM to 30 μM at 30° C. for 10 min. Typically, a 12 point titration was conducted by preparing serial dilutions (from 1 mM compound stocks) with DMSO of the test compounds in daughter plates. The reaction was initiated by the addition of 5 μl of ATP (final concentration 200 μM). Rates of reaction were obtained using a Molecular Devices Spectramax plate reader (Sunnyvale, Calif.) over 10 min at 30° C. The Ki values were determined from the rate data as a function of inhibitor concentration using computerized nonlinear regression (Prism 3.0, Graphpad Software, San Diego, Calif.). Aurora-C activity was screened in a similar manner using Aurora-C protein. Aurora-B activity was screened using a radioactive assay, such as described in Examples 1 and 2, but using Aurora-B protein.
# [2] = target: T2, ROCK I (AA 6-553) (Homo sapiens, UniProt Q13464); assay: ROCK inhibition assay, standard coupled enzyme system ("Enzyme"); settings: enzyme-linked assay
# T2 construct: ROCK I (AA 6-553)
# Method: Compounds were screened for their ability to inhibit ROCK I (AA 6-553) activity using a standard coupled enzyme system (Fox et al. (1998) Protein Sci. 7, 2249). Reactions were carried out in a solution containing 100 mM HEPES (pH 7.5), 10 mM MgCl2, 25 mM NaCl, 2 mM DTT and 1.5% DMSO. Final substrate concentrations in the assay were 45 μM ATP (Sigma Chemicals, St Louis, Mo.) and 200 μM peptide (American Peptide, Sunnyvale, Calif.). Reactions were carried out at 30° C. and 45 nM ROCK L. Final concentrations of the components of the coupled enzyme system were 2.5 mM phosphoenolpyruvate, 350 μM NADH, 30 μg/ml pyruvate kinase and 10 μg/ml lactate dehydrogenase.
# [3] = target: T3, JAK3 (Homo sapiens, UniProt P52333); assay: JAK3 inhibition assay (standard radioactive enzyme assay); settings: average Ki if more than one value determined
# T3 sequence (P52333 1-1124): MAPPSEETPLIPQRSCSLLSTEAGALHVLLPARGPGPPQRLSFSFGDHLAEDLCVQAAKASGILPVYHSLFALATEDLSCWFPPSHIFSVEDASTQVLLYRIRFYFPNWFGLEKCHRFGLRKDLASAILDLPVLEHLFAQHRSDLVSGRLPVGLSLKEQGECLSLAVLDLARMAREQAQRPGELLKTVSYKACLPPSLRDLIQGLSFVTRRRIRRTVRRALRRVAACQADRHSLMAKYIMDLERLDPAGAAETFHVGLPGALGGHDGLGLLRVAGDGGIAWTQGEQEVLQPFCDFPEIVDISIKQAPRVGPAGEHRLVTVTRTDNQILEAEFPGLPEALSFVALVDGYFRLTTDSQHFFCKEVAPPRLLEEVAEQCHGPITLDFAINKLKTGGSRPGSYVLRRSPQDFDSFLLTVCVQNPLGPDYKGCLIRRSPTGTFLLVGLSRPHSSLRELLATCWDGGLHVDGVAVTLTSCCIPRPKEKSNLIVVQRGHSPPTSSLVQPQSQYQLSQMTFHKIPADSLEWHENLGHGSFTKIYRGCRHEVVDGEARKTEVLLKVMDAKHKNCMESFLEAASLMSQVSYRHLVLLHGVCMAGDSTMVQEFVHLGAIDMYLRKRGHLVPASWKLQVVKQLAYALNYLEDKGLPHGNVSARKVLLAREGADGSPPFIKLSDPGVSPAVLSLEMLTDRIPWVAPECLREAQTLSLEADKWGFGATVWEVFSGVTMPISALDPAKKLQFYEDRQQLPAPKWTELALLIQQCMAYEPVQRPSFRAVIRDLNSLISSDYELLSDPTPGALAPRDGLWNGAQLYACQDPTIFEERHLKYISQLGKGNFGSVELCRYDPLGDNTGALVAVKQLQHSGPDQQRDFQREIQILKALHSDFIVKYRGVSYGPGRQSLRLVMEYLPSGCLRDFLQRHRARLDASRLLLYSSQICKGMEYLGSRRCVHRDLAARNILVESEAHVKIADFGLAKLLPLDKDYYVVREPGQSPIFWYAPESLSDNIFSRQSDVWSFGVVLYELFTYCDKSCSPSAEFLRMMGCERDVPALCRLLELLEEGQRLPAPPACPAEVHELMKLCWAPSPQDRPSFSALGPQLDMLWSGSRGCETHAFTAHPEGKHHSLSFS
# Method: (§1) Compounds were screened for their ability to inhibit JAK3 using a standard radioactive enzyme assay. 1.5 μL/well of a DMSO stock containing serial dilutions of a compound of the present invention (concentrations ranging from 667 μM to 46 nM) was placed in a 96 well polycarbonate plate. 50 μL per well of kinase buffer (100 mM HEPES (pH 7.4), 10 mM MgCl2, 25 mM NaCl, 1 mM DTT, and 0.01% bovine serum albumin (BSA)) containing 2 μM poly(Glu)4Tyr and 10 μM ATP was also added to the plate. To initiate the reaction, 50 μL kinase buffer containing 2 nM JAK3 enzyme was added. Final ATP concentration was 5 μM [γ-^33P] ATP (200 μCi ^33P ATP/μmol ATP (Perkin Elmer, Cambridge, Mass.). After 20 minutes at room temperature (25° C.), the reaction was stopped by adding 50 μL 20% trichloroacetic acid (TCA)/0.4 mM ATP to each well. The entire content of each well was then transferred to a 96 well glass fiber filter plate using a TomTek Cell Harvester. After washing, 60 μL scintillation fluid was added and ^33P incorporation detected using a Perkin Elmer TopCount. After removing mean background values for all of the data points the data was fit using Prism software to obtain a Ki(app). Inhibition of JAK2 was measured as above except that final poly(Glu)4Tyr concentration was 15 μM and final ATP concentration was 12 μM.
# [4] = target: JAK2 (Homo sapiens, UniProt O60674); assay: JAK2 inhibition assay (radioactive enzyme assay, as for JAK3); settings: average Ki if more than one value determined
# Method: as §1
# T2 sequence (Q13464 6-553, species assumed): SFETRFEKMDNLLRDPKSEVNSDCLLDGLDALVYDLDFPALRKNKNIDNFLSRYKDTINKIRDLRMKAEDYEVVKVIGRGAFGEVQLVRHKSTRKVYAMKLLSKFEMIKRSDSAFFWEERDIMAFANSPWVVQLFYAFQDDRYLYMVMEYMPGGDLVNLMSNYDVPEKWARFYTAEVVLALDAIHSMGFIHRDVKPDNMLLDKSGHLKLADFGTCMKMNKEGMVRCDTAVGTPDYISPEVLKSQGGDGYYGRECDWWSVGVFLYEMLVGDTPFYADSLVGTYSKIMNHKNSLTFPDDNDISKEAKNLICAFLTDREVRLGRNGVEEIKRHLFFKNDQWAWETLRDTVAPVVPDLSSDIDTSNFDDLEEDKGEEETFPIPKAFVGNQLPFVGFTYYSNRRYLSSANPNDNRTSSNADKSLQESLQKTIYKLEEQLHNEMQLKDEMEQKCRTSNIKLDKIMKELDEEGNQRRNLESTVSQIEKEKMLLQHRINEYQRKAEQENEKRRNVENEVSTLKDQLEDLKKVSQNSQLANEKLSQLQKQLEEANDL
# Chain of JAK2 (O60674 whole entry, species assumed): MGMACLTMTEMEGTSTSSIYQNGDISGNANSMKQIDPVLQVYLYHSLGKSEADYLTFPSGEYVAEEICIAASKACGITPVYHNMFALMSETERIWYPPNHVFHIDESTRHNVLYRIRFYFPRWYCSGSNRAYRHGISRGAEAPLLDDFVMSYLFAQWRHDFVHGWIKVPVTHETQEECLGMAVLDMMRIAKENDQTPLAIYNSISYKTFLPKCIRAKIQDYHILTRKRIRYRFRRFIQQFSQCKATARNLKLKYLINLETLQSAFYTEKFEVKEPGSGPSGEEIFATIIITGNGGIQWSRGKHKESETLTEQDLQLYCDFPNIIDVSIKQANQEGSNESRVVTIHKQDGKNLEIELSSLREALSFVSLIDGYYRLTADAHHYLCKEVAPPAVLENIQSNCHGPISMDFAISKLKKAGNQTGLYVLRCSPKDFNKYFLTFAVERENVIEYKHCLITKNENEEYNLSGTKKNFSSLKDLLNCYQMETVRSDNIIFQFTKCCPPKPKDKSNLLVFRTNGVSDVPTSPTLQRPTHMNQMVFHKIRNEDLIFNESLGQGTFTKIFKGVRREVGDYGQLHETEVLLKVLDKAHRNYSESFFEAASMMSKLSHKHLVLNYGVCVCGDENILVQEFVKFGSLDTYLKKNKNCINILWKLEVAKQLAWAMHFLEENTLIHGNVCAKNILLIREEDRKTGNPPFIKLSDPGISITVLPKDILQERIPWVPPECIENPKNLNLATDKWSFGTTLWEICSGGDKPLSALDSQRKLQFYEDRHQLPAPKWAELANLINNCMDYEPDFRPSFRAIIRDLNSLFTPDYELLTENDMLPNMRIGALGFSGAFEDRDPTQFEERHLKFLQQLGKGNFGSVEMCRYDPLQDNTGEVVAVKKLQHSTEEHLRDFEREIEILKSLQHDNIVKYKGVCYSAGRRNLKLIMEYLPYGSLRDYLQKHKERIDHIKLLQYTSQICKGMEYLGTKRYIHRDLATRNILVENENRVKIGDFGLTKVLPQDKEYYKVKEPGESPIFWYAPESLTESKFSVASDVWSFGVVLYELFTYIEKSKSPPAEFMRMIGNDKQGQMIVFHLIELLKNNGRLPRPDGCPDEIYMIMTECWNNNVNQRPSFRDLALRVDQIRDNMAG
SMILES,Ki [1],Ki [2],Ki [3],Ki [4]
CNC(=O)[C@H](CC(C)C)Nc1nc(-c2c[nH]c3ncc(Cl)cc23)ncc1F [Compound 393],< 500 nM,500 to 5000 nM,,
Clc1ccccc1Nc1cccc(-c2c[nH]c3ncc(-c4ccccc4)cc23)n1 [Compound 266],< 500 nM,500 to 5000 nM,,
O=C(O)c1ccc(-c2c[nH]c3ncc(Cl)cc23)cc1Cl [Compound 175],,,< 500 nM,< 500 nM
COc1ccc(CNc2cccc(-c3c[nH]c4ncc(Cl)cc34)n2)cc1 [Compound 258],< 500 nM,500 to 5000 nM,,
CC(=O)N1CCN(c2cccc(-c3c[nH]c4ncc(Cl)cc34)n2)CC1 [Compound 276],< 500 nM,500 to 5000 nM,,
CNC(=O)COc1cccc([C@H](C)Nc2nc(-c3c[nH]c4ncc(Cl)cc34)ncc2F)c1 [Compound 376],< 500 nM,500 to 5000 nM,,
CC(C)(C)OC(=O)N1CCN(c2cccc(-c3c[nH]c4ncc(Cl)cc34)n2)CC1 [Compound 257],500 to 5000 nM,500 to 5000 nM,,
O=C(Nc1cccc(-c2c[nH]c3ncc(Cl)cc23)n1)c1ccccn1 [Compound 294],< 500 nM,500 to 5000 nM,,
COC(=O)c1cc(F)c(-c2c[nH]c3ncc(Cl)cc23)nc1N[C@@H](C)c1ccc(F)cc1 [Compound 398],< 500 nM,500 to 5000 nM,,
CC(=O)N1[C@H](C)CN(c2cccc(-c3c[nH]c4ncc(OCCOC(C)C)cc34)n2)C[C@@H]1C [Compound 209],,500 to 5000 nM,< 500 nM,
Fc1cnc(-c2c[nH]c3ncc(Cl)cc23)nc1Nc1ccc(-n2ccnc2)cc1 [Compound 301],500 to 5000 nM,500 to 5000 nM,,
Nc1ccc(-c2c[nH]c3ncc(-c4ccccc4)cc23)cc1 [Compound 232],< 500 nM,500 to 5000 nM,,
Clc1cnc2[nH]cc(-c3cccc(NC4CCCC4)n3)c2c1 [Compound 289],< 500 nM,500 to 5000 nM,,
NC(=O)c1ccc(Nc2nc(-c3c[nH]c4ncc(Cl)cc34)ncc2F)cc1 [Compound 295],< 500 nM,500 to 5000 nM,,
CS(=O)(=O)c1cccc(-c2c[nH]c3ncc(-c4ccc(F)cc4)cc23)c1 [Compound 221],< 500 nM,< 500 nM,,
C[C@H](Nc1nc(-c2c[nH]c3ncc(Cl)cc23)ncc1F)c1cccc(OCCCN(C)C)c1 [Compound 377],< 500 nM,500 to 5000 nM,,
COc1cnc2[nH]cc(-c3ncc(F)c(N[C@@H](C)C(=O)NCC(F)(F)F)n3)c2c1 [Compound 204],,500 to 5000 nM,< 500 nM,
